Source: ChEMBL document CHEMBL3397030, “Synthesis and biological evaluation of 3-phenyl-3-aryl carboxamido propanoic acid derivatives as small molecule inhibitors of retinoic acid 4-hydroxylase (CYP26A1)” (Bioorg Med Chem, 2015)
The source made the active and inactive calls. The rule behind the calls is not given here.

Legend:
[1] = Growth inhibition of human HL60 cells at 0.1 uM after 48 hrs by MTT assay; format: functional; settings: HL-60, 48 h, read-out: GI
[2] = test system: HL-60; test: Induction of cell differentiation of human HL60 cells at 0.1 uM after 72 hrs by NBT dye based assay; format: functional
[3] = test system: HL-60; test: Induction of CYP26A1 expression in human HL60 cells at 0.1 uM after 72 hrs; format: functional, cell-based
[4] = target: T1, Cytochrome P450 26A1 (Homo sapiens, UniProt O43174); test: Inhibition of CYP26A1 in ATRA-induced human HL60 cell microsomes incubated for 30 mins using ATRA and NADPH by HPLC method; format: cell-based, HL-60
T1 sequence (O43174 whole entry): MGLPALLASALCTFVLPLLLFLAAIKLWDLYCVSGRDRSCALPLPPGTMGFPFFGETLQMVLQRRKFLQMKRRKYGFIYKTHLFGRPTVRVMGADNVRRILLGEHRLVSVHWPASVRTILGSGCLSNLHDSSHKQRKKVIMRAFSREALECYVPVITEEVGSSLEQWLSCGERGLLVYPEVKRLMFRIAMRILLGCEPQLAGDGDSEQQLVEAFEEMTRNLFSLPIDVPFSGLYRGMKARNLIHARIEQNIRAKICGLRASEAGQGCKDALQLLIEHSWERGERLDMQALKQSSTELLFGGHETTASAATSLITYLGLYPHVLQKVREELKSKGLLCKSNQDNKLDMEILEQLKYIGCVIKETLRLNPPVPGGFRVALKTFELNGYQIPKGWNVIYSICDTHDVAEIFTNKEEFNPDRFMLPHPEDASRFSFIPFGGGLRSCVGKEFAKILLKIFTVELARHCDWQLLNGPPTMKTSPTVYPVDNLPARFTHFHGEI

[5] = Growth inhibition of human HL60 cells at 10 uM after 48 hrs by MTT assay; format: functional; settings: HL-60, 48 h, read-out: GI
[6] = Growth inhibition of human HL60 cells at 10 uM in presence of 0.1 uM ATRA after 48 hrs by MTT assay; format: functional, HL-60
[7] = test system: HL-60; test: Induction of cell differentiation of human HL60 cells at 10 uM after 72 hrs by NBT dye based assay; format: functional
[8] = test system: HL-60; test: Induction of cell differentiation of human HL60 cells at 10 uM in presence of 0.1 uM ATRA after 72 hrs by NBT dye based assay; format: functional

| IC50 [4] [nM] | Structure (SMILES) | inhibition of growth at 0.1 µM [1] [%] | Activity [2] [%] | Activity [3] | inhibition of growth at 10 µM [5] [%] | growth inhibition (GI) [6] [%] | Activity [7] [%] | Activity [8] [%] |
| --- | --- | --- | --- | --- | --- | --- | --- | --- |
|  | CC1=C(/C=C/C(C)=C/C=C/C(C)=C/C(=O)O)C(C)(C)CCC1 [TRETINOIN] | 23.8 | 26.07 | Active |  |  |  |  |
| 1870 | Cc1nn(-c2ccccc2)c(Cl)c1C(=O)NC(CC(=O)O)c1cccc(Br)c1 (configuration not stated) |  |  |  | 6.16 | 56.15 | 0 | 48.51 |
| 3090 | Cc1ccc(C(CC(=O)O)NC(=O)c2cc(C)oc2C)cc1 (configuration not stated) |  |  |  | 5.85 | 44.85 | 0 | 42.62 |
|  | Clc1cccc(C(c2ccc3[nH]cnc3c2)n2ccnc2)c1 (configuration not stated) [LIAROZOLE] |  |  |  | 15.4 | 48.26 | 0 | 46.71 |
| 2730 | Cc1cc(C(=O)NC(CC(=O)O)c2ccc(Cl)cc2)c(C)o1 (configuration not stated) |  |  |  | 10.3 | 49.53 | 0 | 46.61 |
